US11773127B2, “Compounds and methods for treating bacterial infections” (Washington University, priority 2017, dated 2023)
Where two headings read alike, the source gives them in different places.

Molecular target: T1, FmlHLD (Escherichia coli, UniProt P77588)
T1 construct: 6xHis (C); made in house; host or cells: E. coli C600, periplasm, pTRC99a
Assay: biochemical
Assay type: binding, E. coli
Conditions: for inhibitory potency against FmlH, in words: ELISA-based competition assay; for PI100 (percent inhibition): galactoside at 100 μM, 100 µM
Summary of the method: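 Sialidase-treated bovine submaxillary mucin (ds-BSM) coated wells, BSA-blocked, then biotinylated FmlH^LD (20 μg/mL) with or without compound for 1 h at room temperature. Bound lectin detected by streptavidin-HRP/TMB, A450.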

[1] = read-out: % Inhibition at [μM] [1], compound at 1 μM, inhibition of FmlHLD binding to ds-BSM
[2] = read-out: PI(1) (average percent inhibition), compound at 1 μM, Table 4
[3] = read-out: % Inhibition at [μM] [100], compound at 100 μM, inhibition of FmlHLD binding to ds-BSM
[4] = IC50, inhibition of FmlHLD binding to ds-BSM
[5] = read-out: PI100 (percent inhibition), galactoside at 100 μM, mean with standard error of the mean
[6] = read-out: PI10 (percent inhibition), galactoside at 10 μM, mean with standard error of the mean
[7] = IC50 (μM), Table 5, Gal and GalNAc inhibition of FmlH
[8] = read-out: % Inhibition at [μM] [10], compound at 10 μM, inhibition of FmlHLD binding to ds-BSM
[9] = IC50 (μM), Table 6, sulfonamides 3078-3090
[10] = mean with standard error of the mean

T1 sequence (P77588 25-182): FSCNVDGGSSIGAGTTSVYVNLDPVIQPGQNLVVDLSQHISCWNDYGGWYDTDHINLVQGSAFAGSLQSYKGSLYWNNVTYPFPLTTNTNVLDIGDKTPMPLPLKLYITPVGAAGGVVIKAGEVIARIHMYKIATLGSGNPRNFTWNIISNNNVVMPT

## CC(=O)N[C@H]1[C@H](Oc2cccc3c(C)ccnc23)O[C@H](CO)[C@H](O)[C@@H]1O [AM1192, N-((2S,3R,4R,5R,6R)-4,5-dihydroxy-6-(hydroxymethyl)-2-((4-methylquinolin-8-yl)oxy)tetrahydro-2H-pyran-3-yl)acetamide]
[1]
  inhibition at 1 µM: 16.8%
[2]
  inhibition at 1 µM: 16.8%

## O=c1c(O[C@@H]2O[C@H](CO)[C@H](O)[C@H](O)[C@H]2O)c(-c2cc(O)c(O)c(O)c2)oc2cc(O)cc(O)c12 [MyrG, reference compound]
[3]
  inhibition at 100 µM: 10.8%

## CC(=O)N[C@H]1[C@H](Oc2ccccc2-c2cc(C(=O)O)cc([N+](=O)[O-])c2)O[C@H](CO)[C@H](O)[C@@H]1O [AM2119]
[4]
  IC50: 1.72 µM

## CC(=O)N[C@H]1[C@H](Oc2ccccc2-c2cccc(NC(=O)C(F)(F)F)c2)O[C@H](CO)[C@H](O)[C@@H]1O [AM2101]
[4]
  IC50: 1.02 µM

## OC[C@H]1O[C@H](Oc2ccccc2-c2ccccc2)[C@H](O)[C@@H](O)[C@H]1O [Compound 28α, [1,1′-biphenyl]-2-yl α/β-D-galactopyranoside]
[5]
  inhibition at 100 µM: 19.2 ± 3%

## COc1cccc(O[C@@H]2O[C@H](CO)[C@H](O)[C@H](O)[C@H]2NC(C)=O)c1-c1cccc(NS(C)(=O)=O)c1 [AM2082]
[4]
  IC50: 0.151 µM

## OC[C@H]1O[C@H](Oc2ccc(-c3ccccc3)cc2)[C@H](O)[C@@H](O)[C@H]1O [Compound 32α, [1,1′-biphenyl]-4-yl α/β-D-galactopyranoside]
[6]
  inhibition at 10 µM: 22.6 ± 3.9%
[5]
  inhibition at 100 µM: 86.5 ± 1.7%

## O=C(O)C1OC(Oc2ccc([N+](=O)[O-])cc2)C(O)C(O)C1O (stereo not shown) [PNP Galacturonide, reference compound]
Compound at 100 μM, inhibition of FmlHLD binding to ds-BSM
  % Inhibition at [μM] [100]: −2.40%

## CC(=O)N[C@H]1[C@H](Oc2ccccc2-c2cccc([N+](=O)[O-])c2)O[C@H](CO)[C@H](O)[C@@H]1O [AM2030, N-((2S,3R,4R,5R,6R)-4,5-dihydroxy-6-(hydroxymethyl)-2-((3′-nitro-[1,1′-biphenyl]-2-yl)oxy)tetrahydro-2H-pyran-3-yl)acetamide]
  inhibitory potency against FmlH, in words: equal or slightly reduced potency
[7]
  IC50: 2.66 µM
[1]
  inhibition at 1 µM: 9.25%
[2]
  inhibition at 1 µM: 9.25%

## OC[C@H]1O[C@@H](Oc2ccccc2)[C@H](O)[C@@H](O)[C@H]1O [Phenyl Gal, reference compound]
[8]
  inhibition at 10 µM: 15.5%
[3]
  inhibition at 100 µM: 76.9%

## CC(=O)N[C@@H]1[C@H](Oc2cccc(C)c2-c2cccc(NS(=O)(=O)N(C)C)c2)OC(CO)[C@H](O)[C@@H]1O (stereo partly drawn) [Compound 3087, N-((2S,3S,4R,5R)-2-((3′-((N,N-dimethylsulfamoyl)amino)-6-methyl-[1,1′-biphenyl]-2-yl)oxy)-4,5-dihydroxy-6-(hydroxymethyl)tetrahydro-2H-pyran-3-yl)acetamide]
  inhibitory potency against FmlH, in words: retain the same activity as the methyl sulfonamides
[9]
  IC50: 0.13 µM

## N#Cc1ccccc1O[C@@H]1O[C@H](CO)[C@H](O)[C@H](O)[C@H]1O [Compound 137b]
[1]
  inhibition at 1 µM: 12.1%
[8]
  inhibition at 10 µM: 30.4%
[3]
  inhibition at 100 µM: 94.5%

## Cc1ccc(O[C@@H]2O[C@H](CO)[C@H](O)[C@H](O)[C@H]2O)cc1 [Compound 153a]
[1]
  inhibition at 1 µM: 4.59%
[8]
  inhibition at 10 µM: 16.5%
[3]
  inhibition at 100 µM: 85.8%

## OC[C@H]1O[C@@H](Oc2c[nH]c3cc(Cl)ccc23)[C@H](O)[C@@H](O)[C@H]1O [Salmon Gal, reference compound]
[3]
  inhibition at 100 µM: 41.2%

## CC(=O)N[C@H]1[C@H](Oc2ccccc2-c2cccc(S(C)(=O)=O)c2)O[C@H](CO)[C@H](O)[C@@H]1O [AM2059, N-((2S,3R,4R,5R,6R)-4,5-dihydroxy-6-(hydroxymethyl)-2-((3′-(methylsulfonyl)-[1,1′-biphenyl]-2-yl)oxy)tetrahydro-2H-pyran-3-yl)acetamide]
  inhibitory potency against FmlH, in words: equal or slightly reduced potency
[7]
  IC50: 0.7 µM
read-out: % Inhibition at [μM] [0.1], compound at 0.1 μM (100 nM), inhibition of FmlHLD binding to ds-BSM
  inhibition at 0.1 µM: 0.1%
[1]
  inhibition at 1 µM: 23.3%
read-out: PI (0.1) (average percent inhibition), compound at 100 nM, Table 4
  inhibition at 0.1 µM: 0.1%
[2]
  inhibition at 1 µM: 23.3%

## COc1cccc(-c2ccccc2O[C@@H]2O[C@H](CO)[C@H](O)[C@H](O)[C@H]2NC(C)=O)c1 [AM2029, N-((2S,3R,4R,5R,6R)-4,5-dihydroxy-6-(hydroxymethyl)-2-((3′-methoxy-[1,1′-biphenyl]-2-yl)oxy)tetrahydro-2H-pyran-3-yl)acetamide]
  inhibitory potency against FmlH, in words: equal or slightly reduced potency
[7]
  IC50: 2 µM
[1]
  inhibition at 1 µM: 15.5%
[2]
  inhibition at 1 µM: 15.5%

## Cc1cc(=O)oc2c(F)c(O[C@@H]3O[C@H](CO)[C@H](O)[C@H](O)[C@H]3O)c(F)cc12 [Compound 13β]
[10]
  PI100 (percent inhibition): 49.7 ± 4.5%
[6]
  inhibition at 10 µM: 0.8 ± 3.1%
[5]
  inhibition at 100 µM: 50%

## CC(=O)N[C@H]1[C@H](Oc2ccccc2-c2cccc(C(=O)N(C)C)c2)O[C@H](CO)[C@H](O)[C@@H]1O [AM2032, 2′-(((2S,3R,4R,5R,6R)-3-acetamido-4,5-dihydroxy-6-(hydroxymethyl)tetrahydro-2H-pyran-2-yl)oxy)-N,N-dimethyl-[1,1′-biphenyl]-3-carboxamide]
  inhibitory potency against FmlH, in words: equal or slightly reduced potency
[7]
  IC50: 3.13 µM
[1]
  inhibition at 1 µM: -3.61%
[2]
  inhibition at 1 µM: -3.61%

## OC[C@H]1O[C@@H](SCCc2ccccc2)[C@H](O)[C@@H](O)[C@H]1O [2-phenylethyl-thio-galactoside, reference compound]
[8]
  inhibition at 10 µM: 2.31%
[3]
  inhibition at 100 µM: 49.9%

## OC[C@H]1O[C@@H](Oc2ccc(-c3ccccc3)cc2)[C@H](O)[C@@H](O)[C@H]1O [Compound 32β, [1,1′-biphenyl]-4-yl α/β-D-galactopyranoside]
[5]
  inhibition at 100 µM: 30%

## CC(=O)N[C@@H]1[C@H](Oc2cccc(C(=O)O)c2-c2cccc(NS(C)(=O)=O)c2)OC(CO)[C@H](O)[C@@H]1O (stereo partly drawn) [Compound 3082, 6-(((2S,3S,4R,5R)-3-acetamido-4,5-dihydroxy-6-(hydroxymethyl)tetrahydro-2H-pyran-2-yl)oxy)-3′-(methylsulfonamido)-[1,1′-biphenyl]-2-carboxylic acid]
[9]
  IC50: 0.13 µM

## OC[C@H]1O[C@@H](Oc2cccc3ccccc23)[C@H](O)[C@@H](O)[C@H]1O [Compound 18β, 1-naphthalenyl α/β-D-galactopyranoside]
[10]
  PI100 (percent inhibition): 45.9 ± 3.7%
[5]
  inhibition at 100 µM: 46%

## O=[N+]([O-])c1ccccc1O[C@@H]1O[C@H](CO)[C@H](O)[C@H](O)[C@H]1O [ONPG, o-nitrophenyl β-galactoside, reference compound]
[1]
  inhibition at 1 µM: 14.2%
[8]
  inhibition at 10 µM: 31.1%
[3]
  inhibition at 100 µM: 93%
Soluble compound at 100 μM (0.1 mM)
  inhibition of FmlHLD binding to ds-BSM, in words: more effectively than Gal, GalNAc, or TF

## OC[C@H]1O[C@@H](SCCc2ccccc2)[C@H](O)[C@@H](O)[C@H]1O [Compound 22β-thio]
[6]
  inhibition at 10 µM: 2.3 ± 2.5%
[5]
  inhibition at 100 µM: 49.8 ± 2.5%

## CC(=O)N[C@H]1[C@H](Oc2ccccc2-c2cccc(C(F)(F)F)c2)O[C@H](CO)[C@H](O)[C@@H]1O [AM2037, N-((2S,3R,4R,5R,6R)-4,5-dihydroxy-6-(hydroxymethyl)-2-((3′-(trifluoromethyl)-[1,1′-biphenyl]-2-yl)oxy)tetrahydro-2H-pyran-3-yl)acetamide]
  inhibitory potency against FmlH, in words: equal or slightly reduced potency
[7]
  IC50: 1.51 µM
[1]
  inhibition at 1 µM: 15.7%
[2]
  inhibition at 1 µM: 15.7%

## OC[C@H]1O[C@H](Oc2ccc(-c3ccccc3)cc2)[C@H](O)[C@@H](O)[C@H]1O [Compound 114bf1]
[8]
  inhibition at 10 µM: 22.6%
[3]
  inhibition at 100 µM: 86.5%

## N#Cc1ccc(O[C@@H]2O[C@H](CO)[C@H](O)[C@H](O)[C@H]2O)cc1 [Compound 9β, 4-cyanophenyl β-D-galactopyranoside]
[10]
  PI100 (percent inhibition): 85.7 ± 1.6%
read-out: PI1 (percent inhibition), galactoside at 1 μM, mean with standard error of the mean
  inhibition at 1 µM: 9.5 ± 3.7%
[6]
  inhibition at 10 µM: 19.2 ± 4.8%
[5]
  inhibition at 100 µM: 86%

## OC[C@H]1O[C@H](Oc2cccc3ccccc23)[C@H](O)[C@@H](O)[C@H]1O [Compound 115af1]
[3]
  inhibition at 100 µM: 28.1%

## Cc1c(C)c2ccc(O[C@@H]3O[C@H](CO)[C@H](O)[C@H](O)[C@H]3O)cc2oc1=O [Compound D715-0293, reference compound]
[1]
  inhibition at 1 µM: 10.2%
[8]
  inhibition at 10 µM: 19.8%
[3]
  inhibition at 100 µM: 89.2%

## COC(=O)c1cccc(-c2ccccc2O[C@H]2O[C@H](CO)[C@H](O)[C@H](O)[C@H]2O)c1 [Compound 116e]
[3]
  inhibition at 100 µM: 13.1%

## CC(=O)N[C@H]1[C@H](Oc2ccccc2-c2cc(NS(=O)(=O)C(F)(F)F)ccc2F)O[C@H](CO)[C@H](O)[C@@H]1O [AM2116]
[4]
  IC50: 3.07 µM

## OC[C@H]1O[C@H](Oc2cccc3ccccc23)[C@H](O)[C@@H](O)[C@H]1O [Compound 18α, 1-naphthalenyl α/β-D-galactopyranoside]
[5]
  inhibition at 100 µM: 28.1 ± 3.4%

## CC(C)(C)NC(=O)CN(C(=O)c1cccc2cccnc12)[C@@H]1O[C@H](CO)[C@H](O)[C@H](O)[C@H]1O [AM1181, N-(2-(tert-butylamino)-2-oxoethyl)-N-((2R,3R,4S,5R,6R)-3,4,5-trihydroxy-6-(hydroxymethyl)tetrahydro-2H-pyran-2-yl)quinoline-8-carboxamide]
[1]
  inhibition at 1 µM: 10.8%
[2]
  inhibition at 1 µM: 10.8%
